In brackets after ≈: the same amount, converted by molar mass.
Assay: physchem
Text: Determination of the small molecule content in a complex plant matrix depends on the understanding of minimum solubility in the chosen extraction solvent. […] Often, tests on mixture are hardly reproducible on pure compounds if this aspect is not routinely considered in the workflow. We performed a general testing of best solvent systems to compare a wide range of small molecules of interest to understand the limitations of general approaches within a complex plant matrix such as Nicotiana.
For each of the 29 reference compounds, 2 mg was weighed into a 15 mL glass tube and dissolved in the minimum amount of the test solvent by gradually adding the solvent with a micropipette until complete dissolution or to a final volume of 10.0 mL. Seven solvents with polarities from nonpolar to polar were chosen for the test: hexane (C6H14), CH2Cl2, CH2Cl2/MeOH (4:1, v/v), EtOH, MeOH, MeOH/H2O (7:3, v/v), and H2O. The consumed solvents and their volumes were recorded for each reference compound.

[1] = 22 °C, organic solvent or mixture, thermodynamic from solid, Solubility in CH2Cl2, solvent dichloromethane (CH2Cl2); room temperature (21–23 °C)
[2] = 22 °C, organic solvent or mixture, thermodynamic from solid, Solubility in EtOH, solvent ethanol; room temperature (21–23 °C)
[3] = 22 °C, organic solvent or mixture, thermodynamic from solid, Solubility in MeOH/H2O (7:3), solvent MeOH/H2O (7:3, v/v); room temperature (21–23 °C)
[4] = hexane (C6H14), 22 °C, organic solvent or mixture, thermodynamic from solid, Solubility in C6H14, solvent hexane (C6H14); room temperature (21–23 °C); 2 mg compound, solvent added until dissolution or 10.0 mL
[5] = methanol, 22 °C, organic solvent or mixture, thermodynamic from solid, Solubility in MeOH, solvent methanol; room temperature (21–23 °C)
[6] = solvent CH2Cl2/MeOH (4:1, v/v); room temperature (21–23 °C)
[7] = water, 22 °C, thermodynamic from solid, Solubility in H2O, solvent water; room temperature (21–23 °C)
[8] = MeOH/H2O (7:3, v/v), 22 °C, organic solvent or mixture, thermodynamic from solid, Solubility in MeOH/H2O (7:3), solvent MeOH/H2O (7:3, v/v); room temperature (21–23 °C)
[9] = dichloromethane (CH2Cl2), 22 °C, organic solvent or mixture, thermodynamic from solid, Solubility in CH2Cl2, solvent dichloromethane (CH2Cl2); room temperature (21–23 °C)
[10] = ethanol, 22 °C, organic solvent or mixture, thermodynamic from solid, Solubility in EtOH, solvent ethanol; room temperature (21–23 °C)
[11] = 22 °C, organic solvent or mixture, thermodynamic from solid, Solubility in C6H14, solvent hexane (C6H14); room temperature (21–23 °C); 2 mg compound, solvent added until dissolution or 10.0 mL
[12] = 22 °C, organic solvent or mixture, thermodynamic from solid, Solubility in MeOH, solvent methanol; room temperature (21–23 °C)
[13] = 22 °C, water, thermodynamic from solid, Solubility in H2O, solvent water; room temperature (21–23 °C)
[14] = 22 °C, organic solvent or mixture, thermodynamic from solid, Solubility in CH2Cl2
[15] = 22 °C, organic solvent or mixture, thermodynamic from solid, Solubility in EtOH
[16] = 22 °C, organic solvent or mixture, thermodynamic from solid, Solubility in MeOH/H2O (7:3)
[17] = 22 °C, organic solvent or mixture, thermodynamic from solid, Solubility in CH2Cl2/MeOH (4:1), solvent CH2Cl2/MeOH (4:1, v/v); room temperature (21–23 °C)

Compound | solubility [1] [mg/mL] | solubility [2] [mg/mL] | solubility [3] [mg/mL] | solubility [4] [mg/mL] | solubility [5] [mg/mL] | solubility [7] [mg/mL] | solubility [11] [mg/mL] | solubility [12] [mg/mL] | solubility [13] [mg/mL] | also measured
NC(=O)c1cccnc1 [Nicotinamide] | < 0.19 | 20.8 (≈ 170 mM) | 114 (≈ 933 mM) | < 0.19 | 66.3 (≈ 543 mM) | 150 (≈ 1230 mM) | – | – | – | Solubility in CH2Cl2/MeOH (4:1) [6]: 37.3 mg/mL (≈ 305 mM); Solubility in CH2Cl2/MeOH (4:1) (solvent CH2Cl2/MeOH (4:1, v/v); room temperature (21–23 °C); listed as nicotinamide): < 100 mg/mL
Vitamin E | – | – | – | – | – | – | – | – | – | Solubility in C6H14: 215 mg/mL; Solubility in CH2Cl2: 208 mg/mL; Solubility in CH2Cl2/MeOH (4:1): 241 mg/mL; Solubility in EtOH: 43.0 mg/mL; Solubility in H2O: NS (key: NS: not soluble, insoluble in the solvent at the tested concentration range (0.19–558 mg/mL)); Solubility in MeOH: 31.2 mg/mL; Solubility in MeOH/H2O (7:3): 0.23 mg/mL
C=CC(C)(O)CCC=C(C)C (centres unmarked) [Linalool] | – | – | – | 422 (≈ 2740 mM) | 462 (≈ 3000 mM) | 0.57 (≈ 3.7 mM) | – | – | – | solubility (CH2Cl2/MeOH (4:1, v/v), 22 °C, organic solvent or mixture, thermodynamic from solid, Solubility in CH2Cl2/MeOH (4:1), solvent CH2Cl2/MeOH (4:1, v/v); room temperature (21–23 °C)): 462 mg/mL (≈ 3000 mM); solubility [8]: 77.3 mg/mL (≈ 501 mM); solubility [9]: 440 mg/mL (≈ 2850 mM); solubility [10]: 454 mg/mL (≈ 2940 mM)
CC1=C[C@H](O)CC(C)(C)[C@H]1/C=C/C(C)=C/C=C/C(C)=C/C=C/C=C(C)/C=C/C=C(C)/C=C/C1=C(C)C[C@@H](O)CC1(C)C [Lutein] | < 0.19 | < 0.19 | < 0.19 | – | – | – | < 0.19 | < 0.19 | < 0.19 | Solubility in CH2Cl2/MeOH (4:1) [6]: 4.66 mg/mL (≈ 8.19 mM); Solubility in CH2Cl2/MeOH (4:1) (solvent CH2Cl2/MeOH (4:1, v/v); room temperature (21–23 °C); listed as lutein): < 100 mg/mL
O=C(O)c1cccnc1 [Nicotinic acid] | – | – | – | < 0.19 | 6.71 (≈ 54.5 mM) | 3.1 (≈ 25.2 mM) | – | – | – | solubility [14]: < 0.19 mg/mL; solubility [15]: 3.51 mg/mL (≈ 28.5 mM); solubility [16]: 2.85 mg/mL (≈ 23.1 mM)
c1cncc(C2=NCCC2)c1 [Myosmine] | 194 (≈ 1330 mM) | 418 (≈ 2860 mM) | 231 (≈ 1580 mM) | – | – | – | 4.27 (≈ 29.2 mM) | 356 (≈ 2440 mM) | 180 (≈ 1230 mM) | solubility [17]: 175 mg/mL (≈ 1200 mM)
C=C1CC/C=C(/C)CC[C@@H]2[C@@H]1CC2(C)C [Caryophyllene] | – | – | – | – | – | – | – | – | – | Solubility in MeOH/H2O (7:3) (solvent MeOH/H2O (7:3, v/v); room temperature (21–23 °C)): NS (not soluble, insoluble in the solvent at the tested concentration range (0.19–558 mg/mL)); Solubility in EtOH (solvent ethanol; room temperature (21–23 °C)): 196 mg/mL (≈ 959 mM); Solubility in MeOH (solvent methanol; room temperature (21–23 °C)): 36.2 mg/mL (≈ 177 mM); Solubility in H2O (solvent water; room temperature (21–23 °C)): NS (not soluble, insoluble in the solvent at the tested concentration range (0.19–558 mg/mL))
c1cncc([C@@H]2CCCN2)c1 [Nornicotine] | 422 (≈ 2850 mM) | 396 (≈ 2670 mM) | 418 (≈ 2820 mM) | – | – | – | 358 (≈ 2420 mM) | 428 (≈ 2890 mM) | 416 (≈ 2810 mM) | solubility [17]: 412 mg/mL (≈ 2780 mM)
C[C@@H]1O[C@@H](OC[C@H]2O[C@@H](Oc3c(-c4ccc(O)c(O)c4)oc4cc(O)cc(O)c4c3=O)[C@H](O)[C@@H](O)[C@@H]2O)[C@H](O)[C@H](O)[C@H]1O [Rutin] | – | – | – | < 0.19 | 49 (≈ 80.3 mM) | < 0.19 | – | – | – | solubility [8]: 0.52 mg/mL (≈ 0.852 mM); solubility [9]: < 0.19 mg/mL; solubility [10]: 6.67 mg/mL (≈ 10.9 mM); Solubility in CH2Cl2/MeOH (4:1) [6]: 3.82 mg/mL (≈ 6.26 mM); Solubility in CH2Cl2/MeOH (4:1) (solvent CH2Cl2/MeOH (4:1, v/v); room temperature (21–23 °C); listed as rutin): < 100 mg/mL
CCCCC/C=C\C/C=C\CCCCCCCC(=O)O [Linoleic acid] | 504 (≈ 1800 mM) | 558 (≈ 1990 mM) | < 0.19 | – | – | – | 374 (≈ 1330 mM) | 526 (≈ 1880 mM) | < 0.19 | solubility [17]: 502 mg/mL (≈ 1790 mM)
c1cncc([C@@H]2CCCCN2)c1 [Anabasine] | – | – | – | – | – | – | – | – | – | Solubility in CH2Cl2/MeOH (4:1): 70.0 mg/mL (≈ 431 mM); solubility (22 °C, organic solvent or mixture, thermodynamic from solid, Solubility in C6H14): < 0.19 mg/mL; solubility [14]: 10.3 mg/mL (≈ 63.5 mM); solubility (22 °C, organic solvent or mixture, thermodynamic from solid, Solubility in CH2Cl2/MeOH (4:1)): < 100 mg/mL; solubility [15]: 97 mg/mL (≈ 598 mM); solubility (22 °C, organic solvent or mixture, thermodynamic from solid, Solubility in MeOH): 103 mg/mL (≈ 635 mM); solubility [16]: 109 mg/mL (≈ 672 mM); solubility (22 °C, water, thermodynamic from solid, Solubility in H2O): < 0.19 mg/mL

From article PMC9694777, “Fractionation and Extraction Optimization of Potentially Valuable Compounds and Their Profiling in Six Varieties of Two Nicotiana Species” (Molecules, 2022)
